Measurements published in paper PMC11665553, “12-Lipoxygenase inhibition delays onset of autoimmune diabetes in human gene replacement mice” (JCI Insight, 2024).
Values joined by “and” are separate entries in the source; they are usually repeats but may differ in a detail not shown here. Equal values may be shown once.

Assays:
B6.hALOX12 mice = assay: Multiple low-dose STZ-induced diabetes in B6.hALOX12 mice (random-fed blood glucose, GTT, β cell mass); conditions: for GTT blood glucose (Fig 1F): hAlox12 mice, 30 mg/kg i.p., day 4 after STZ, individual mice, listed as ML355, 30 mg/kg; for GTT blood glucose (Fig 1I): individual animals
Description: Intraperitoneal GTTs (IPGTTs) were performed in mice after overnight fasting (16 hours). Mice were i.p. injected with glucose at a dose of 1 or 2 g/kg body weight and blood glucose levels were measured at specific time points: 0, 10, 20, 30, 60, 90, and 120 minutes after glucose injection using an AlphaTrak glucometer.
Random-fed glucose levels were measured by tail snip using a glucometer (AlphaTrak), and mice were followed for 20 days after STZ injections. IPGTT was performed on day 4 after STZ treatments after overnight fasting.

NOD.hALOX12 mice = assay: NanoString spatial proteomics of insulitic and insulin-positive areas in NOD.hALOX12 mice; assay type: in vivo, mouse
Description: To specifically interrogate the nature of immune cells within the insulitic region, we performed spatial tissue-based proteomics (NanoString). We used insulin immunostaining and nuclei staining to identify β cells and the surrounding insulitic regions. Prevalidated antibodies in the GeoMx mouse immune panel were used to probe for immune cell subtypes in the peri-islet insulitic region and within the islet. […] This reduction in myeloid cell populations was accompanied by a decrease in T and B cells populations, including CD4^+, CD3^+, CD8^+, and CD19^+ cells (Figure 2F and Supplemental Figure 2, A and B). […] Enhanced PD-L1/PD-1 interactions shift T cells to less aggressive, more regulatory phenotypes ([21]).
Paraffin embedded pancreata were used for NanoString spatial proteomics analysis. Tissues were stained with morphology markers: AF-647–conjugated insulin (Cell Signaling Technology, 9008s; 1:400) and nuclei marker (SYTO13). Tissues were hybridized using a pre-validated mouse GeoMx Immune cell panel (NanoString, GMX-PROCONCT-MICP) comprising the following markers: PD-1, CD11c, CD8a, PanCk, MHC II, CD19, CTLA4, SMA, CD11b, CD3e, fibronectin, Ki-67, CD4, GZMB, F4/80, CD45, PD-L1; housekeeping genes: histone H3, S6, GAPDH; and IgG antibodies: Rb IgG, Rat IgG2a, and Rat IgG2b for background subtraction. All markers were conjugated to unique UV-photocleavable oligos for indexing. At least 5 or 6 islets with insulitis were chosen as regions of interest (ROIs) per mouse based on the morphology markers (insulin and nuclei). The ROIs were segmented into insulitic region and insulin^+ region for each islet. Oligonucleotides from the segmented ROIs were photocleaved, collected in a 96-well plate, and reads were counted using nCounter (NanoString). Scaling was performed to normalize for any differences in tissue surface area and depth. After scaling, reads were normalized to housekeeping markers and background was subtracted using IgG markers.

[1] = Pharmacokinetics after single p.o. dose in C57BL/6J mice (plasma LC-MS/MS)
[2] = Insulitic Area, Fig 2F source data, individual values
[3] = female NOD.hALOX12 mice, 30 mg/kg p.o., 4 weeks
[4] = sheet SFig 2A, individual regions of interest
[5] = C57BL/6J, mouse, plasma, po, 30 mg/kg

COc1cccc(CNc2ccc(S(=O)(=O)Nc3nc4ccccc4s3)cc2)c1O [VLX-1005]
GTT blood glucose (Fig 1F) (B6.hALOX12 mice; 90 min after glucose): 221 and 387 and 284 and 306 | GTT blood glucose (Fig 1F) (B6.hALOX12 mice; 120 min after glucose): 159 and 209 and 223 and 281 | Protection from STZ-induced diabetes (B6.hALOX12 mice; male B6.hALOX12 mice, 30 mg/kg i.p. daily peri-STZ): complete protection from STZ-induced diabetes | GTT blood glucose (Fig 1I) (B6.hALOX12 mice; time 0): 403 and 326 and 234 and 245 and 279 and 370 | GTT blood glucose (Fig 1I) (B6.hALOX12 mice; time 10): 585 and 462 (2×) and 543 and 359 and 482 | GTT blood glucose (Fig 1I) (B6.hALOX12 mice; time 20): 636 and 668 and 606 and 558 and 520 and 577 | GTT blood glucose (Fig 1I) (B6.hALOX12 mice; time 30): 577 and 520 and 660 and 662 and 560 and 646 | GTT blood glucose (Fig 1I) (B6.hALOX12 mice; time 60): 488 and 436 and 530 and 581 and 420 and 589 | GTT blood glucose (Fig 1I) (B6.hALOX12 mice; time 90): 345 and 329 and 461 and 457 and 365 and 408 | GTT blood glucose (Fig 1I) (B6.hALOX12 mice; time 120): 239 and 265 and 375 and 360 and 216 and 283 | CD11b (NOD.hALOX12 mice; [2]): 5.147 and 5.277 and 5.327 and 5.94 and 5.07 and 5.565 and 5.634 and 5.068 and 4.855 and 6.029 | CD11c (NOD.hALOX12 mice; [2]): 2.876 and 1.502 and 2.598 and 4.232 and 2.537 and 2.93 and 3.146 and 2.8254 and 2.641 and 4.743 | CD45 (first CD45 row) (NOD.hALOX12 mice; [2]): 5.25 and 3.49 and 3.636 and 8.487 and 3.645 and 3.942 and 4.828 and 3.892 and 3.054 and 8.111 | CD45 (second CD45 row) (NOD.hALOX12 mice; [2]): -0.2135 and 0.0264 and 0.3853 and 4.031 and -1.253 and 0.3826 and 0.2212 and -1.155 and 0.06453 and 3.867 | CTLA4 (NOD.hALOX12 mice; [2]): 1.939 and 2.368 and 2.417 and 1.307 and 2.276 and 2.4212 and 3.583 and 2.587 and 3.2171 and 2.563 | F4/80 (NOD.hALOX12 mice; [2]): 0.2536 and 0.7983 and 1.224 and 1.023 and -0.1728 and 1.356 and 2.254 and 0.8327 and -0.1455 and 1.282 | GZMB (NOD.hALOX12 mice; [2]): 4.352 and 4.4072 and 5.2506 and 2.9798 and 5.432 and 6.733 and 6.076 and 5.882 and 4.529 and 3.344 | MHC II (NOD.hALOX12 mice; [2]): -0.6174 and 1.207 and 0.8883 and -0.3662 and -0.4066 and -0.144 and -0.3371 and 1.073 and -0.07508 and -1.247 | PD-1 (NOD.hALOX12 mice; [2]): -0.3236 and 0.1793 and 1.041 and 1.538 and -1.244 and -0.5413 and -0.07496 and 0.52 and -0.1742 and 0.5415 | PD-L1 (NOD.hALOX12 mice; [2]): 1.897 and 1.722 and 1.56 and 0.2193 and 1.6509 and 2.371 and 2.045 and 2.4831 and 1.059 and 0.2909 | Myeloid population subtypes (macrophages, dendritic cells) in insulitic and islet areas (NOD.hALOX12 mice; [3]): notable reduction | PD-L1 levels (spatial proteomics) (NOD.hALOX12 mice; [3]): increased levels | T and B cell populations (CD4+, CD3+, CD8+, CD19+) in insulitic and islet areas (NOD.hALOX12 mice; [3]): decrease | CD4 (NOD.hALOX12 mice; [4]): 0.3826 and 0.2212 and -1.155 and 0.06453 and 3.867 and -0.2135 and 0.0264 and 0.3853 and 4.031 and -1.253 | CD8 (NOD.hALOX12 mice; [4]): 1.856 and 1.666 and 1.577 and 1.141 and 2.8916 and 1.46 and 1.4593 and 2.166 and 2.266 and 1.44 | CD11b (NOD.hALOX12 mice; [4]): 5.565 and 5.634 and 5.068 and 4.855 and 6.029 and 5.147 and 5.277 and 5.327 and 5.94 and 5.07 | CD11c (NOD.hALOX12 mice; [4]): 2.93 and 3.146 and 2.8254 and 2.641 and 4.743 and 2.876 and 1.502 and 2.598 and 4.232 and 2.537 | CD19 (NOD.hALOX12 mice; [4]): 0.2718 and 0.8536 and 0.6292 and 1.249 and 2.864 and 0.1873 and -0.4029 and 0.4865 and 2.831 and -0.3159 | CD-3e (NOD.hALOX12 mice; [4]): 4.049 and 3.547 and 4.013 and 3.889 and 3.319 and 3.27 and 3.43 and 3.812 and 3.482 and 3.738 | CTLA4 (NOD.hALOX12 mice; [4]): 2.4212 and 3.583 and 2.587 and 3.2171 and 2.563 and 1.939 and 2.368 and 2.417 and 1.307 and 2.276 | F4/80 (NOD.hALOX12 mice; [4]): 1.356 and 2.254 and 0.8327 and -0.1455 and 1.282 and 0.2536 and 0.7983 and 1.224 and 1.023 and -0.1728 | GZMB (NOD.hALOX12 mice; [4]): 6.733 and 6.076 and 5.882 and 4.529 and 3.344 and 4.352 and 4.4072 and 5.2506 and 2.9798 and 5.432 | PD-1 (NOD.hALOX12 mice; [4]): -0.5413 and -0.07496 and 0.52 and -0.1742 and 0.5415 and -0.3236 and 0.1793 and 1.041 and 1.538 and -1.244 | PD-L1 (NOD.hALOX12 mice; [4]): 2.371 and 2.045 and 2.4831 and 1.059 and 0.2909 and 1.897 and 1.722 and 1.56 and 0.2193 and 1.6509 | Ki67 (NOD.hALOX12 mice; sheet SFig 2B, individual regions of interest): 1.4 and 1.3004 | AUC%extrap_obs ([1]; C57BL/6J mice, 30 mg/kg p.o., mean ± SD): 0.342 ± 0.133% | AUC(0-inf) [1, 5]: 15100 ng·h/mL | AUC(0-t) [1, 5]: 15000 ng·h/mL | Cmax [1, 5]: 13300 ng/mL | MRT inf [1, 5]: 2.57 ± 0.38 h | half-life [1, 5]: 3.24 ± 0.07 h
